Measured values taken from paper PMC5397516, “Insights into the Mode of Action of the Sactibiotic Thuricin CD” (Frontiers in Microbiology, 2017).
Where two headings read alike, the source gives them in different places. Where no end group is shown, it is not given here.

Key:
B. firmus DPC6349 = assay: Minimum inhibitory concentration (MIC) assay, two-fold serial dilutions in LB broth; type: cell-based, Bacillus firmus; settings: for MIC, fold higher than thuricin CD: B. firmus DPC6349, in molar values
Protocol: In this study, B. firmus DPC6349 was utilized as a surrogate thuricin CD-sensitive host, in lieu of thuricin CD-sensitive C. difficile strains. The aerobic growth conditions of DPC6349, in conjunction with its class I status, facilitated the FC experiments in this study. MIC assays were conducted as previously described with minor modifications ([Mathur et al., 2013]). Briefly, cells of the bacteriocin-sensitive strain B. firmus DPC6349 were grown overnight for 16 h in LB broth at 37°C with vigorous agitation (150 rpm). The following day, the cells were subcultured until they reached mid-logarithmic phase (an OD600 of approximately 0.5). At this point, cells were diluted such that the final inoculum for MIC assays was approximately 5 × 10^5 cfu/ml. Thuricin CD peptides, Nisin A and lacticin 3147 peptides were resuspended in LB broth. The potassium ionophore, valinomycin, was initially reconstituted in DMSO (Molecular Probes) prior to diluting in PBS and subsequently diluting in LB broth. All antimicrobials were finally diluted in LB broth to give the desired starting concentrations and two-fold serial dilutions were performed in 96-well microtitre plates, for MIC assays. MIC readings were taken at 18 h and the MIC was defined as the lowest concentration of the antimicrobial at which there was no visible growth of the target strain. Assays were conducted in triplicate.

B. firmus DPC6349 cells = assay: Time course flow cytometry of membrane potential (DiOC2(3)), cell size (FSC) and granularity (SSC); type: cell-based, Bacillus firmus
From the text: Used alone or in combination with fluorescent probes, FC enables the assessment of various structural and functional cell properties, often leading to a deeper characterization of the physiological heterogeneity of a microbial population ([Díaz et al., 2010]). Membrane potential in microbial cells can be detected by FC following staining with fluorescent lipophilic cell-permeant probes such as DiOC2(3). […] Conversely, fluorescence-independent monitoring by FC of the forward (FSC) and side-angle (SSC) light scattering properties of a bacterial population provides useful information about morphological parameters such as cell size and internal granularity/complexity, respectively ([Díaz et al., 2010]; [Shapiro, 2015]). The impact of the thuricin CD peptides, Trnα and Trnβ, on the membrane potential and morphology of sensitive B. firmus DPC6349 cells was therefore assessed by FC as follows. Cells from a 100 μl aliquot of an overnight culture were recovered by centrifugation (8260 g for 10 min), diluted 10-fold in 1 ml of LB broth and activated by incubation at 37°C for 30 min. At this point, the cells were diluted a further 25-fold and stained for 30 min with a solution of 6.3 μM DiOC2 (3) (Thermo Fisher Scientific), prepared in PBS and containing 0.21% glucose to energize the cells and thereby generate a large membrane potential. Aliquots of 1.4 ml of stained samples were acquired at medium flow rate (35 μl/sec) using a BD Accuri C6 flow cytometer (Becton Dickinson, Belgium) and a threshold of 10000 on FSC to minimize background. Acquisition and analysis of DiOC2(3) fluorescence (FL3, > 670 nm long pass), cell size (FSC) and cell complexity/granularity (SSC) were carried out using the BD Accuri C6 software v. 1.0.2 (Becton Dickinson, Belgium). The microbial population was identified based on its light scattering properties on FSC versus SSC bi-plots and a gating strategy was used to discriminate it from background particles and cell debris. The time course changes in membrane potential and morphology of DPC6349 cells following challenge with an antimicrobial were assessed using the “Run Unlimited” function of the C6 flow cytometer. Unchallenged DiOC2(3)-stained cells were initially acquired for 2 min to establish baseline levels of membrane potential and morphological parameters. Subsequently, a small aliquot of a 10–15x stock solution of an antimicrobial in PBS was added and its effect on the physiology of the sensitive target monitored over 15–25 min. The impact on the host’s membrane potential of individual, combined and sequentially added thuricin CD peptides, Trnα or Trnβ, was compared to those exerted by the proton motive force (PMF)-depleting agents Nisin A ([Bruno et al., 1992]), lacticin 3147 ([McAuliffe et al., 1998]), and valinomycin ([Shapiro, 2004]). Stock solutions of valinomycin were prepared in DMSO, whereas diluted working solutions were made using PBS. To generate high external potassium conditions and trigger the membrane depolarizing activity of valinomycin ([Shapiro, 2004]; [Cronin, 2015]), 150mM KCl was added to the PBS used to prepare the DiOC2(3) staining solution. Assays were conducted in duplicate.

[1] = B. firmus DPC6349, approx. 5 × 10^5 cfu/ml, LB broth, read at 18 h, no visible growth, triplicate

Compound: CC(C)[C@@H]1NC(=O)[C@H](C)OC(=O)[C@@H](C(C)C)NC(=O)[C@@H](C(C)C)OC(=O)[C@H](C(C)C)NC(=O)[C@H](C)OC(=O)[C@@H](C(C)C)NC(=O)[C@@H](C(C)C)OC(=O)[C@H](C(C)C)NC(=O)[C@H](C)OC(=O)[C@@H](C(C)C)NC(=O)[C@@H](C(C)C)OC1=O [Valinomycin, valinomycin]
- MIC (B. firmus DPC6349; [1]): 0.69 µg/mL
- MIC, fold higher than thuricin CD (B. firmus DPC6349): five-fold higher
- MIC (B. firmus DPC6349; Cytobacillus firmus, DPC6349, 18 h): 0.625 µM
- Effect on cell size and granularity (B. firmus DPC6349 cells; 156 nM (0.25x MIC), 150 mM extracellular KCl): no reduction in cell size or granularity
- Effect on membrane potential (B. firmus DPC6349 cells; 156 nM (0.25x MIC), 150 mM extracellular KCl, DiOC2(3)): immediate and sharp membrane depolarization

Compound: O=C(N[C@H](CO)[C@H](O)c1ccc([N+](=O)[O-])cc1)C(Cl)Cl [Chloramphenicol, chloramphenicol]
- MIC (B. firmus DPC6349; [1]): 2.423 µg/mL
- MIC, fold higher than thuricin CD (B. firmus DPC6349): 60 fold
- MIC (B. firmus DPC6349; Cytobacillus firmus, B. firmus DPC6349, approx. 5 × 10^5 cfu/ml, LB broth, read at 18 h, no visible growth, triplicate, read-out: MIC): 7.5 µM
- Effect on membrane potential and cell size (B. firmus DPC6349 cells; (approximately 3x MIC), DiOC2(3)): no membrane depolarization and reduction in cell size

Compound: Nisin A (ITSISLCTPGCKTGALMGCNMKTATCHCSIHVSK; also: lantibiotic post-translational modifications (thioether rings), not given here; UniProt P13068 24-57, looked up) [pore-forming single-component lantibiotic bacteriocin]
- MIC (B. firmus DPC6349; [1]): 1.046 µg/mL
- MIC (B. firmus DPC6349; B. firmus DPC6349, approx. 5 × 10^5 cfu/ml, LB broth, read at 18 h, no visible growth, triplicate, read-out: MIC): 0.312 µM
- MIC, fold higher than thuricin CD (B. firmus DPC6349): approximately 2.5 fold
- Effect on cell size (FSC) and granularity (SSC) (B. firmus DPC6349 cells; 3 μM (approximately 10x MIC)): decreases in cell size (FSC) and granularity/complexity (SSC)
- Effect on membrane potential (B. firmus DPC6349 cells; 3 μM (approximately 10x MIC), DiOC2(3) red fluorescence): very fast membrane depolarization
- Time to membrane depolarization after adding the peptide (B. firmus DPC6349 cells; 3 μM (approximately 10x MIC), DiOC2(3)-stained energized cells, duplicate): ≤ 4 min
